ChEMBL document CHEMBL1201862, “PubChem BioAssay data set” (2004)
Calls of active or inactive are those of the source. Rule as the data show it, for most assays here: actives have a measured EC50 and inactives only a lower limit.

Tests used:
P388/ADR = experiment: cells; format: functional; details: Mus musculus, P388/ADR
SN12K1 = experiment: cells; format: functional; details: Homo sapiens, SN12K1
[1] = biological target: T1, DNA repair and recombination protein RAD54-like (Homo sapiens, UniProt Q92698); experiment: inhibitors of human RAD54 branch migration, confirmation, biochemical, fluorescence, cherry-picked samples, dose series (AID 651657); format: functional
T1 sequence (Q92698 whole entry): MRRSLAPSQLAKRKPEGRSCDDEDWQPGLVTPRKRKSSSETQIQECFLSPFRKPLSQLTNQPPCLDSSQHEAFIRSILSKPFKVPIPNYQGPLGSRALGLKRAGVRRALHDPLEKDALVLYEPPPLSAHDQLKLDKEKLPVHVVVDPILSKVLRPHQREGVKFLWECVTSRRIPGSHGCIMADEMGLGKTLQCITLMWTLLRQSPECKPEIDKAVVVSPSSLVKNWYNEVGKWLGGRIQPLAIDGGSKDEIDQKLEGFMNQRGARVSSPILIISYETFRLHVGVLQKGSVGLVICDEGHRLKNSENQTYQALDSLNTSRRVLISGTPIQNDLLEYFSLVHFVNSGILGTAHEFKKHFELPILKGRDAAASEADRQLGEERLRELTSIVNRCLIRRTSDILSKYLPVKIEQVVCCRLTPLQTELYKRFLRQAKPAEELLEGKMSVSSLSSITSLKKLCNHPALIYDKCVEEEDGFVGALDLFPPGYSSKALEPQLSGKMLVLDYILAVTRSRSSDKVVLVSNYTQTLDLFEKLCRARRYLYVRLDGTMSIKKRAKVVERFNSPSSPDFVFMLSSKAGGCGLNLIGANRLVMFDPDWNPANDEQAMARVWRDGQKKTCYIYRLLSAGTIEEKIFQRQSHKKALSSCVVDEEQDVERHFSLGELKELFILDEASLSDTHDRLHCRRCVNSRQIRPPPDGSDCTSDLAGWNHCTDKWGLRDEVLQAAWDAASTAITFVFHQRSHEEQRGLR

[2] = biological target: T2, Ubiquitin-conjugating enzyme E2 N (Homo sapiens, UniProt P61088); format: functional;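 also: Dose-response confirmation in a TR-FRET assay detecting UBC13-driven polyubiquitin chain formation, inhibition measured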
T2 sequence (P61088 whole entry): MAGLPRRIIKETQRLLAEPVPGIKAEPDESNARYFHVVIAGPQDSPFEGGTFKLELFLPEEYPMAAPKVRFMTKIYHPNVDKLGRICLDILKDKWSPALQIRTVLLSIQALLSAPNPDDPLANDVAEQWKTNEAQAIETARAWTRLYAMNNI

HeLa = experiment: HeLa cell cytotoxicity, dose response, cytotoxicity control for MITF activator project, CellTiter-Glo luminescence, cherry-pick samples (AID 540259); format: functional, cell-based; details: Homo sapiens
Leucine aminopeptidase = biological target: T3, Leucine aminopeptidase (Plasmodium falciparum 3D7, UniProt Q8IL11); experiment: P. falciparum M17LAP inhibitors, primary screen, biochemical, fluorogenic H-Leu-NHMec substrate, 1536-well (AID 1619); format: functional
T3 sequence (Q8IL11 whole entry): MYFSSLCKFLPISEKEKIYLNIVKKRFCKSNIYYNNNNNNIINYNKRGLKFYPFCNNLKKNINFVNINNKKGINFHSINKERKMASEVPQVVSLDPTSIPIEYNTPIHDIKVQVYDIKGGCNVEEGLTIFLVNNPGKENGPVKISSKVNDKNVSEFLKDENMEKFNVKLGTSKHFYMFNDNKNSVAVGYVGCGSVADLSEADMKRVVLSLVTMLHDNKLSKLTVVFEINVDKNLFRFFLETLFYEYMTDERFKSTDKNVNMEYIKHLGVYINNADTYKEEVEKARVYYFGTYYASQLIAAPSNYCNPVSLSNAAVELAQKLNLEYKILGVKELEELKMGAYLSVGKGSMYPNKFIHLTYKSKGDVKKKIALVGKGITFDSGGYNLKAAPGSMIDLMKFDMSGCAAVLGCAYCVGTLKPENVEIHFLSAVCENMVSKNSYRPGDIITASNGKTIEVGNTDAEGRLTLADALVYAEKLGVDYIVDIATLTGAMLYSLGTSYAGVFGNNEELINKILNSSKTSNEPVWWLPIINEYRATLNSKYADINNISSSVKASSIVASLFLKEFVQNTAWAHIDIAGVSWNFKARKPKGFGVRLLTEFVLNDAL

[3] = biological target: T4, Zinc finger protein mex-5 (Caenorhabditis elegans, UniProt Q9XUB2); experiment: MEX-5/TCR-2 RNA interaction inhibitors, dose response, biochemical, C. elegans, fluorescence polarization (AID 1960)
T4 sequence (Q9XUB2 whole entry): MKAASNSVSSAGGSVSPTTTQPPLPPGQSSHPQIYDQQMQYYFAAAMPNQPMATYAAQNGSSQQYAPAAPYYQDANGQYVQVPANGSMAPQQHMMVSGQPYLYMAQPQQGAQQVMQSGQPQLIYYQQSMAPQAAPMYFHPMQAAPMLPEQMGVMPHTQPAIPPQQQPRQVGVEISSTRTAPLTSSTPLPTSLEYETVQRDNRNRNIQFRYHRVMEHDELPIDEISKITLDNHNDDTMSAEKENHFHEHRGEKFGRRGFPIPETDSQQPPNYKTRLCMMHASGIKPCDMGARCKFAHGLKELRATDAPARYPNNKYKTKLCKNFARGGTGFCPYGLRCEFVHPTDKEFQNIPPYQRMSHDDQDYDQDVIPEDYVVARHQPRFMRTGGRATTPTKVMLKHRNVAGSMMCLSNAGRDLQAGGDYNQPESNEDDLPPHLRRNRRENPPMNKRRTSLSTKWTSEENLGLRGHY

[4] = biological target: T5, RNA-binding protein pos-1 (Caenorhabditis elegans, UniProt G5EF15); experiment: inhibitors of POS-1/mex-3 RNA binding, dose response, biochemical, fluorescence polarization (AID 1964);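 also: purified POS-1 fused to maltose binding protein made in E. coli; potency of compounds blocking POS-1 binding to fluorescent RNA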
T5 sequence (G5EF15 whole entry): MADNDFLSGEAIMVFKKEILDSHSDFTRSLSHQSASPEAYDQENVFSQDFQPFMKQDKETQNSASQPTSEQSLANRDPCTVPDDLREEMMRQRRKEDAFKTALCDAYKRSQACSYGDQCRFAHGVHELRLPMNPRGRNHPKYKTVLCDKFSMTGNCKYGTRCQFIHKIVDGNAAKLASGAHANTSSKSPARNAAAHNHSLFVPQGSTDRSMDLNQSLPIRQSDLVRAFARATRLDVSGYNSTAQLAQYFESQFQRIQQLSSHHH

[5] = cytotoxicity in KRAS-transformed pancreatic duct cells, primary screen, cell-based, fluorescence, HTS (AID 431); format: functional; details: Homo sapiens;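 also: cell line used: HPDE-C7K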
[6] = cytotoxicity in HPDE-C7 cells, cell-based, fluorescence, HTS (AID 430); format: functional; details: Homo sapiens
BJ [7] = experiment: cytotoxicity toward BJ-TERT fibroblasts, dose response, cell-based, RAS-independent, luminescence (AID 1933); format: functional; details: Homo sapiens
BJ [8] = experiment: cells; format: functional, cell-based; details: Homo sapiens
[9] = Luminescence Cell-Based Dose Confirmation HTS to Identify Inhibitors of Platelet Dense Granule Release. [Related pubchem assays: 1663 (Primary HTS), 1678 (Summary of Project)]; format: functional
[10] = biological target: Luciferin 4-monooxygenase (Photinus pyralis, UniProt P08659); experiment: firefly luciferase enzyme inhibitors, dose response, biochemical, luminescence (AID 1891)
Chain of Luciferin 4-monooxygenase (P08659 whole entry): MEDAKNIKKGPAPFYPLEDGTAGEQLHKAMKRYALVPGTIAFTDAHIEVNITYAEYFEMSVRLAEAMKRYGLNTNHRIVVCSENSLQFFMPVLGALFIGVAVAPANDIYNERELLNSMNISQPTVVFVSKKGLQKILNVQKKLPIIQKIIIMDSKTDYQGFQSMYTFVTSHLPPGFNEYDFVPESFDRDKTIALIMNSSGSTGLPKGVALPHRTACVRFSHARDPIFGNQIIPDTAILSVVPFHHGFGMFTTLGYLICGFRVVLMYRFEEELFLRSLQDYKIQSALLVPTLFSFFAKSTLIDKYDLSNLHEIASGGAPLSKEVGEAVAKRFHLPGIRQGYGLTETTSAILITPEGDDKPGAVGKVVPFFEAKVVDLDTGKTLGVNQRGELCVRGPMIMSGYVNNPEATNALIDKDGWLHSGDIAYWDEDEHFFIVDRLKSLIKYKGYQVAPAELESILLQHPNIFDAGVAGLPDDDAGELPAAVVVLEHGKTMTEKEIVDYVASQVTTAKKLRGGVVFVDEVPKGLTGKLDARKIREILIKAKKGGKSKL

[11] = cytotoxicity toward DRD oncogenic fibroblasts, dose response, cell-based, non-viral oncogenic, luminescence (AID 1934); format: functional; details: Homo sapiens
BJ [12] = experiment: cytotoxicity toward BJ-TERT-LT-ST fibroblasts, dose response, cell-based, RAS-independent, luminescence (AID 1935); format: functional; details: Homo sapiens;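 also: BJ fibroblasts immortalized with TERT plus LT and ST oncogenes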
[13] = Luminescence Cell-Based Dose Retest to Confirm Inhibitors of Cancer Stem Cells. [Related pubchem assays (depositor defined):AID2717, AID2721]; format: functional; details: Homo sapiens
[14] = control 3'UTR Renilla luciferase suppression, dose response, counter-screen for Shn3 inhibitor project, cell-based, Clone20-Shn3RL, cherry-picked (AID 624133); format: functional
[15] = inhibitors of firefly luciferase expression or activity, dose response, H4 neuroglioma cells, luminescence (AID 1990); format: functional, cell-based
[16] = biological target: T6, Heat shock factor protein 1 (Mus musculus, UniProt P38532); experiment: inhibition of MG132-induced HSE-luciferase signal, confirmation, cell-based, NIH3T3, luminescence, dose retest (AID 2382); format: functional;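 also: NIH3T3 fibroblasts with HSF1-driven luciferase reporter stressed by proteasome inhibitor MG132; luminescence from HSF1-driven luciferase expression after 8 hours of MG132 stress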
T6 sequence (P38532 whole entry): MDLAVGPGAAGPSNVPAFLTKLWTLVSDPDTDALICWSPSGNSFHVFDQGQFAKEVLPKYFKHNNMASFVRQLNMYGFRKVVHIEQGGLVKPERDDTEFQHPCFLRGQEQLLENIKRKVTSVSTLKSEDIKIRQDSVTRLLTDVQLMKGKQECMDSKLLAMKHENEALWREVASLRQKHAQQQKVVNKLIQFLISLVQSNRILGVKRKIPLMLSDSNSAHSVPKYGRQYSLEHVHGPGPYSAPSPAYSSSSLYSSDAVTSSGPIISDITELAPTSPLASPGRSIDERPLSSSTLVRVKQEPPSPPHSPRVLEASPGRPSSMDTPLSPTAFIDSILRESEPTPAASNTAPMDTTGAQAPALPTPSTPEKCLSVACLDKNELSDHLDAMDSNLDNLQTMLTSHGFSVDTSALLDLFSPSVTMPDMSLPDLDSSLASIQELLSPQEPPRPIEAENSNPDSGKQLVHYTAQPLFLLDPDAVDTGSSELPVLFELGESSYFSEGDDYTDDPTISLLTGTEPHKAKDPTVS

[17] = Luminescence Cell-Based Dose Response HTS to Identify Inhibitors of 5'UTR Stem-Loop Driven Prion Protein mRNA Translation in H4 Neuroglioblastoma Cells. [Related pubchem assays: 1827 (Project Summary), 1813 (Primary HTS)]; format: functional
INS1 = experiment: beta cell apoptosis inhibitors, cytokine rescue, dose response, luminescence, retest (AID 449756); format: functional, cell-based; details: Rattus norvegicus;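 also: cell death triggered by IL-1 beta plus TNF-alpha plus IFN-gamma mixture; protective hits raise ATP signal compared with cytokine alone wells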
[18] = HepG2 cell cytotoxicity, dose response, cytotoxicity control for Shn3 inhibitor project, CellTiter-Glo, cherry-picked (AID 624134); format: functional, cell-based
[19] = inhibitors of SNCA 5'UTR-driven reporter translation, confirmation, H4 neuroglioma cells, luminescence (AID 1988); format: functional, cell-based
[20] = Shn3 3'UTR reporter inhibitors, dose response, cell-based, Clone20 osteoblasts, firefly luciferase, cherry-picked (AID 624132); format: functional;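 also: firefly luciferase luminescence from reporter carrying the Shn3 3'UTR in osteoblasts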

## O=NN(CCCl)C(=O)NC1CCC(CC2CCC(NC(=O)N(CCCl)N=O)CC2)CC1 (stereo unspecified)
P388/ADR
  GI50: 1.64 µM (inactive)
SN12K1
  GI50: 0.385 µM (active)

## CCn1c(=O)c2cc(C(=O)NCCN(C)C)sc2c2ccccc21
[1]
  AC50: 30.7 µM (active)
[2]
  IC50: > 20 µM (inactive)

## CCn1cc(C(=O)NCCN(C)C)c(=O)c2cc(F)c(N3CCN(C)CC3)cc21
[1]
  AC50: 21.1 µM (active)

## C=CCC1(CC=C)CCCN1C(=O)C1CCC(=O)N(CCc2ccccc2)C1 (stereo unspecified)
HeLa
  AC50: 93 µM (active)

## Cc1ccc(-c2cc(-c3ccc(C)cc3O)[nH]n2)cc1
HeLa
  AC50: 44.6 µM (active)

## COc1ccc(-c2csc(-n3cccn3)n2)cc1
HeLa
  AC50: 33.9 µM (active)

## CC(C)=NN=C(N)NC(=S)Nc1ccc(C)cc1
Leucine aminopeptidase
  IC50: 59.3 µM (active)

## CC(C)N1CCc2c(sc(NC(=O)c3ccc(C(=O)c4ccccc4)cc3)c2C(N)=O)C1
[1]
  AC50: 68.7 µM (active)

## CCOC(=O)c1cc(=O)n2nc(-c3ccccc3F)nc2s1
[3]
  EC50: > 300 µM (not active)
Leucine aminopeptidase
  IC50: 31.2 µM (active)
[4]
  EC50: > 300 µM (not active)

## CCCCNC(=S)Nc1ccc2cn[nH]c2c1
Leucine aminopeptidase
  IC50: 75.6 µM (active)

## CC(C)Cn1nc(NS(=O)(=O)c2ccccc2)c2cc3ccccc3nc21
[5]
  EC50: > 20 µM (not active)
[6]
  EC50: > 20 µM (not active)

## CC(=O)c1sc(NC(=O)c2ccc3c(c2)OCO3)nc1C
HeLa
  AC50: 51.5 µM (active)

## O=C(Nc1ccccc1)Nc1ccc(C(=O)N2CCCC2)cc1
BJ [7]
  EC50: 9.11 µM (active)
BJ [8]
  EC50: 9.01 µM (active)
[9]
  EC50: 3.93 µM (active)
[10]
  EC50: 0.571 µM (active)
[11]
  EC50: 7.86 µM (active)
BJ [12]
  EC50: > 150 µM (inconclusive)

## NS(=O)(=O)c1ccc(NC=C2C(=O)N(C3CCCCC3)C(=O)N(C3CCCCC3)C2=O)cc1
[5]
  EC50: 5.81 µM (active)
[6]
  EC50: 5.47 µM (active)
[13]
  AC50: 3.92 µM (active)

## c1csc(-c2noc(COc3ccc4c(c3)CCCC4)n2)c1
HeLa
  AC50: > 350 µM (inactive)

## CCOC(=O)c1c(NC(=O)c2ccc(-n3cnnn3)cc2)sc2c1CCCC2
[5]
  EC50: > 20 µM (not active)
[6]
  EC50: > 20 µM (not active)

## CC(C)c1ccc(NC2=NN=C(c3cccs3)CS2)cc1
HeLa
  AC50: 63.8 µM (active)

## O=C(CCl)Nc1ccccc1C(=O)NCc1ccccc1
BJ [7]
  EC50: > 150 µM (not active)
BJ [8]
  EC50: > 150 µM (not active)
[11]
  EC50: > 150 µM (inconclusive)
BJ [12]
  EC50: > 150 µM (not active)

## O=C(N/N=C\c1cccc(Cl)c1)c1[nH]nc2c1CCCC2
HeLa
  AC50: > 350 µM (inactive)

## CC[C@H]1CN2CCc3cc(OC)c(OC)cc3[C@@H]2C[C@@H]1C[C@H]1NCCc2cc(OC)c(OC)cc21
[14]
  AC50: 0.33 µM (active)
[15]
  EC50: < 0.1 µM (active)
[16]
  EC50: < 0.16 µM (active)
[17]
  EC50: < 0.1 µM (active)
INS1
  AC50: 2.35 µM (active)
[5]
  EC50: 0.09 µM (active)
[18]
  AC50: 40.5 µM (active)
[19]
  EC50: < 0.1 µM (active)
[6]
  EC50: 0.15 µM (active)
[20]
  AC50: < 0.26 µM (active)

## CCOc1ccc2[nH]c3c(NCCN(C)C)ncnc3c2c1
[1]
  AC50: 55.6 µM (active)
